These results are taken from PubChem BioAssay AID179 (DTP/NCI, 2004).

What is called EC50 is the concentration at which the effect is half-maximal. By IC50 is commonly meant the concentration needed to halve the response being measured. The low end stands for greater potency in that assay, the high end for weaker potency in that assay.

The test system of this assay is CEM cells HIV-1 protection, formazan growth assay. Nature of the assay: NCI AIDS Antiviral Assay. The settings on record: for IC50: measured here: growth of uninfected CEM cells. The procedure, abridged:
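Category rules: moderately active means at least 50% protection on retest, and confirmed active means 100% protection reproducibly. The underlying data came from a formazan growth assay in HIV-1-infected CEM cells.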

The source made the active and inactive calls.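 How the source made its calls: active means compounds giving half or more protection of infected cells from virus-caused growth loss, again on retest; inactive means the rest.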 Where a SMILES comes first, the peptide text is derived from it. [ ]: non-standard residue; d: D form. The star is where a group is joined. ξ: configuration not given here. ξF = NC(Cc1ccccc1)C(=O)O; Cbz = O=C(OCc1ccccc1)*

For the compound `CC1=NN(C(=O)Cc2ccccc2)C(=O)/C1=C\C=C\c1ccccc1`, the EC50 was above 57.5 µM and the IC50 was above 57.5 µM.
With `O=c1[nH]c(=O)n(C2OC(CF)C(O)C2O)cc1N1CCOCC1` (stereo not given), the EC50 is above 200 µM and the IC50 was above 200 µM.
As to `COc1cccc(-n2cccc2)c1`, the EC50 is above 200 µM and the IC50 is above 200 µM.
On to `COC(=O)C1=C(C(=O)OC)C(Cc2ccccc2)(OO)OC1=O` (stereo not given), for which the EC50 was above 200 µM and the IC50 was 0.955 µM.
The like results for `CC(c1ccccc1)N1OC1(c1ccccc1)c1ccccc1` (stereo not given) were, in that order, above 105 µM and 14.5 µM.
The like results for `CO[C@](C(=O)OC[C@H]1[C@@H](COC(C)=O)[C@@H]2O[C@H]1c1cc3c(cc12)OCO3)(c1ccccc1)C(F)(F)F` were, in that order, above 200 µM and 7.59 µM.
For `COc1cc(CNC2c3cc4c(cc3C(c3cc(OC)c(OC)c(OC)c3)[C@H]3C(=O)OCC23)OCO4)cc(OC)c1OC` (stereo not given in full), the outcome was inactive.
For `Cc1occc1C(=S)Nc1ccc(Cl)c(OCC(=O)OC(C)(C)C)c1`, the EC50 is 12.9 µM and the IC50 was 28.2 µM.
For `O=C1[C@@H]2C(c3cccc([N+](=O)[O-])c3)=NO[C@@H]2C(=O)N1c1ccc(Cc2ccc(N3C(=O)[C@H]4C(c5cccc([N+](=O)[O-])c5)=NO[C@H]4C3=O)cc2)cc1`, the EC50 is above 38 µM and the half-inhibitory concentration (IC50) is above 38 µM.
For `CC1=NN(C(=O)c2ccccc2O)C(=O)C1N=Nc1ccccc1C(=O)O` (stereo not given), the outcome was inactive.
As for `NC(=Nc1ccc(O)cc1)S(=O)O`, the EC50 was above 200 µM and the IC50 amounted to 120 µM.
With `[N-]=N[N+]#I1OC(C(F)(F)F)(C(F)(F)F)c2ccccc21`, the result was inactive.
Consider `O=C(Nc1ccc(Br)cc1)C(=O)C(C(=O)c1ccc(Cl)c(Cl)c1)C1OC(=O)c2ccccc21` (stereo not given), for which the EC50 was above 66.1 µM and the IC50 came out at 10 µM.
The like results for `Cc1[nH]c(-c2ccccc2)c2nc(N(C)C)oc(=O)c12` were, in that order, above 200 µM and above 200 µM.
With `COC(=O)C(/C(=N/NC(=O)c1ccncc1)C(=O)Nc1ccccc1OC)c1nc2ccc(Cl)cc2[nH]c1=O` (stereo not given), the EC50 is above 91.2 µM and the IC50 was above 91.2 µM.
Consider `COC(=O)N1C2C3CC4C2C4C3N1C(=O)OC`, for which the outcome was inactive.
For the compound `COC(=O)c1ccc(CCc2cc(O)c(Br)cc2O)cc1`, the EC50 is above 200 µM and the half-maximal inhibitory concentration (IC50) was 10 µM.
In the case of `CCOC(=O)CNC(=O)C(Cc1ccccc1)NC(=O)OCc1ccccc1` (stereo not given) (Cbz-[ξF]-Gly-OEt), the EC50 was above 200 µM and the IC50 was 191 µM.
Regarding `CC(=O)OCC12C(OC(C)=O)C[C@@H](C)C3(CC(c4ccoc4)OC3=O)C1CCC(OC(C)=O)C21CO1` (stereo not given in full), the EC50 is above 200 µM and the IC50 is above 200 µM.
As to `CCOC1c2cc(C(C)C)c(O)c(O)c2[C@@]23CCCC(C)(C)C2C1OC3=O` (stereo not given in full), the EC50 is above 200 µM and the IC50 was determined as 9.33 µM.
`CC(=O)CCCCC(=O)Nc1ccc(CC(NC(=O)OC(C)(C)C)C(=O)NCC(=O)OCc2ccccc2)cc1` (stereo not given): the EC50 is above 200 µM and the IC50 was determined as 12.9 µM.
Turning to `CCCCC[C@@H]1CCCC2C1CCC(CCCCCO)N2C(=O)OCC(Cl)(Cl)Cl` (stereo not given in full), the result was inactive.
On to `O=C(O)C1COCN1C(=O)c1cc2ccccc2cc1SSc1cc2ccccc2cc1C(=O)N1COCC1C(=O)O` (stereo not given), for which the EC50 is above 200 µM and the IC50 was 93.3 µM.
For `COC(=O)c1ccc(C)cc1C1CN=NC12Cc1cc(C)c(C)cc1C2=O` (stereo not given) the same measures were above 200 µM and 22.4 µM.
The like results for `Cc1ccc(S(=O)(=O)OCC23CCC(CC2)C2CC23)cc1` (stereo not given) were, in that order, above 100 µM and 70.8 µM.
For `O=S1(=O)c2ccc(cc2)N=CC=Nc2ccc1cc2` the same measures were above 33.1 µM and above 33.1 µM.
With `O=C(Nc1ccccc1)NC(CSSCC(NC(=O)Nc1ccccc1)C(=O)O)C(=O)O` (stereo not given), the EC50 was above 200 µM and the IC50 is 7.24 µM.
With `[O-]/[N+]1=[N+](\[O-])c2ccccc2COCc2ccccc21`, the outcome was inactive.
